Consider six molecules from patent US20240166643A1, “IMIDAZO[1,2-A]PYRIDINE COMPOUNDS AND THEIR USE IN THERAPY” (Imperial College Innovations Limited, priority 2020, published 2024).

Where two headings read alike, the source gives them in different places. Marks after values point to notes of the source that are not given here.

One data set has as its system P-493-6 cell line. Put plainly: CellTiter-Blue assay, P-493-6 with low, medium or high c-Myc. It is filed as cell-based, human. The following applies: 72 hours, different expression levels of c-Myc induced. The source says: (§1) Assay (d): CellTiter-Blue® Assay
(§2) Shep-ER-N-Myc cell line (cell type: human neuroblastoma) was sourced from Linda Valentijn, and firstly reported in Valentijn et. al., Cancer Res, 2005, 65(8), 3136-3145. SKNAS-ER-N-Myc cell line (cell type: human neuroblastoma) was sourced from Michael D. Hogarty, and firstly reported in Ushmorov et al., Oncogene, 2008, 27(24), 3424-3434. P-493-6 cell line was sourced from Chi Van Dang, and firstly reported in Pajic et. al., Int J Cancer, 2000, 87(6), 787-793. P-493-6 cell line is a non-transformed B cell line that can be genetically engineered to have either “low” levels of c-Myc, “medium” levels of c-Myc or “high” levels of c-Myc. The terms “low”, “medium” and “high” are descriptors commonly used in the art and will be readily understood to mean: • i) “low” levels of c-Myc—a level of MYC expression which represents non-proliferating normal cells (i.e. a level of MYC expression not sufficient to cause the cycling of the cells); • ii) “medium” levels of c-Myc—a level of MYC expression which represents normal proliferating cells; and • iii) “high” levels of c-Myc—a level of MYC expression which represents enforced/deregulated expression of c-Myc, typically observed in cancerous cells. […]
(Alamar Blue is a resazurin reagent that responds to reducing activity.)

For another data set, the target named is Human NMT1 (HsNMT1) (Homo sapiens, UniProt P30419).
Sequence of Human NMT1 (HsNMT1) (P30419 whole entry, looked up): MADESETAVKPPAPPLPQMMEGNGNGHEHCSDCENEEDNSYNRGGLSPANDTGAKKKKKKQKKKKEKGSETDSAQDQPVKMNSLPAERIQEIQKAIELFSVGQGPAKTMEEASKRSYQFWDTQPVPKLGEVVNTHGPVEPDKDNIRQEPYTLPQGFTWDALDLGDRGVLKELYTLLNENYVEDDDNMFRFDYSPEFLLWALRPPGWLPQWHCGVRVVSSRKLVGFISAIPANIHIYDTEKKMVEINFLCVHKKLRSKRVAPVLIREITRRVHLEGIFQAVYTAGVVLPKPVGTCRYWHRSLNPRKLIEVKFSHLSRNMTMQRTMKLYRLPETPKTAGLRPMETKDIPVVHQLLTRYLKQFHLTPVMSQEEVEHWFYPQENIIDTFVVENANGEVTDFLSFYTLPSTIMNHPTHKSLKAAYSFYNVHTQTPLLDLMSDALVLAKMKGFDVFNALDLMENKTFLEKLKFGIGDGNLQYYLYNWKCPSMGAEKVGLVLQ
A short description of another data set: in vitro. Conditions: male, Sprague-Dawley, rat, pooled cryopreserved rat hepatocytes, pH 7.4.
The target of data set [1] is T1, Plasmodium vivax (Pv) NMT (Plasmodium vivax (strain Salvador I), UniProt A5K1A2). Nature of the data set: biochemical.
T1 sequence (A5K1A2 1-410): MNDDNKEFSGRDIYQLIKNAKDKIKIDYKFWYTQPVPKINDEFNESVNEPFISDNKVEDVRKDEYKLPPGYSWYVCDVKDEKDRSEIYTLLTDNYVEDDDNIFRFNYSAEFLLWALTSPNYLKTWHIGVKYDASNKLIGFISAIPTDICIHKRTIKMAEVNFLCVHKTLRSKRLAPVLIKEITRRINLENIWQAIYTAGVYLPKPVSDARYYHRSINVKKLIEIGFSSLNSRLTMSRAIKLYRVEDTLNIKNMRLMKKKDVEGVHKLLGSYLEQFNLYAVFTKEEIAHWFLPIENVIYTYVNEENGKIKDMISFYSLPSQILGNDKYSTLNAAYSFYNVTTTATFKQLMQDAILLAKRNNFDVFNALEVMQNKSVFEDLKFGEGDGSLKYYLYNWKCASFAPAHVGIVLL
In data set [2] the test system is Plasmodium falciparum 3D7. Nature of the data set: SYBR Green assay, Plasmodium falciparum strain 3D7. The format is cell-based. Conditions: P. falciparum strain 3D7, 96 h incubation, read-out: Pf EC50 strain 3D7.
Procedure: Assay (g): SYBR Green Assay
EC50 values for Plasmodium falciparum (Pf) NMT strain 3D7 or NF54 were measured for certain compounds of the invention using an assay utilising SYBR Green dye. The assay for NMT strain 3D7 was carried out as follows:
Synchronous Plasmodium falciparum 3D7 late stage trophozoites at 33-36 h were used. Final parasitemia and haematocrit were between 0.1-0.2% and 2% respectively. Red blood cells used for the assay were centrifuged to remove the buffy coat and washed twice in Roswell Park Memorial Institute (RPMI) Media 1640 so that no white blood cells were present. The culture medium contained RPMI 1640 with 5 g/L Albumax, 0.025 g/L gentamycin and 0.292 g/L L-glutamine.
Sterile 96 well black tissue culture plates (Costar) were used routinely for every assay. […] Chloroquine was used as a standard with ten times reduced concentrations range as above. Two sets of control were used in duplicate wells, one set with no added compound of the invention or standard (positive control) and one with uninfected red blood cells (negative control).
The plates were incubated at 37° C. for 48 h in a gas chamber flushed with 5% CO2, 5% O2 and 90% N2. After 48 h supernatants were taken out from each well and replaced with fresh drug and incubated for a further 48 h in the same manner. At the end of the 96 h incubation, 25 μL of SYBR Green I dye (SYBR Green I nucleic acid gel stain 10,000×, in DMSO from Invitrogen) in lysis buffer (1 μL dye to 1 mL lysis buffer) was added to each well and stored overnight at −20° C. The lysis buffer contained Tris (20 mM, pH 8.0), EDTA (2 mM), Saponin (0.16%) and Triton X-100 (1.6% v/v).
Plates were warmed to room temperature and fluorescence intensity was measured with a FLUOstar Omega Microplate fluorescence reader (BMG Labtech). Values were expressed in relative fluorescence units. Binding of SYBR Green is specific for parasite DNA as mature erythrocytes lack DNA and RNA. Fluorescence intensity unit was converted to percentage (%) of growth as follows:
% growth=(culture under drug)−(uninfected RBC)/(culture with no drug)−(uninfected RBC)×100
and the EC50 value was determined.
Another data set has as its system SKNAS-ER-N-Myc cell line. Nature of the data set: CellTiter-Blue assay, SKNAS-ER-N-Myc with or without MYCN induction. The format is cell-based, human.
Text: as §1, §2
For SKNAS cells, the experiment was performed in a 48 well plate and in technical triplicate. […] The fluorescence was measured at 570 nm using an EnVision™ plate reader. […]

Another data set has as its system Shep-ER-N-Myc cell line. Nature of the data set: CellTiter-Blue assay, Shep-ER-N-Myc with or without MYCN induction. The format is cell-based, human. Conditions: 72 hours.
Text: as §1, §2
For Shep cells, the experiment was performed in a 96 well plate and in technical quadruplicate. […] The fluorescence was measured at 570 nm using an EnVision™ plate reader. […]

The target in data set [3] is T1, Plasmodium vivax (Pv) NMT.
Data set [4] relates to P. falciparum Pf3D7^0087/N9. Nature of the data set: Mouse malaria model, NODscidIL2Rγnull mice engrafted with human erythrocytes.
Text: Assay (h): Mouse Malaria Model Protocol
The goal of this study was to evaluate the efficacy of compounds of the invention against P. falciparum Pf3D7^0087/N9 in NODscidIL2Rγ^null mice engrafted with human erythrocytes.
Mice were euthanized on day 7.

As for `C[C@H]1CN(C)CCN1c1ncc(Cl)c(N2CC(C(=O)NC(C)(C)c3cnc4ccccn34)C2)n1` [Example compound 2], the “metabolic viability of the P-493-6 cell line” value with P-493-6 cell line was “clear MYC-dependent loss in metabolic viability”.

Take `C[C@@H]1CN(c2ncc(F)c(N3CC(C(=O)N(C)C(C)(C)c4cnc5ccccn45)C3)n2)CCN1C` [Example 102, 1-{2-[(3R)-3,4-dimethylpiperazin-1-yl]-5-fluoropyrimidin-4-yl}-N-(2-{imidazo[1,2-a]pyridin-3-yl}propan-2-yl)-N-methylazetidine-3-carboxamide]: the IC50 (commonly the concentration that gives 50% inhibition) against Human NMT1 (HsNMT1) worked out at 72 nM; in data set [1], 24 nM. Further, in the data set “in vitro”, the half-life (usually how long it takes for the measured level to halve) at 1 µM was 14.5 min. In addition, the EC50 – broadly, the concentration giving half of the maximal effect – in data set [2] is > 1000 nM.

In the case of `C[C@H]1CN(C)CCN1c1ncc(Cl)c(N2CC(C(=O)NC(C)(C)c3cnc4ccccn34)C2)n1` [Example Compound 2], the “metabolic viability of the SKNAS-ER-N-MYC cell line” value with SKNAS-ER-N-Myc cell line is given as “clear loss in metabolic viability when the cells have induction of MYCN”. The “metabolic viability of the Shep-ER-N-MYC cell line” value with Shep-ER-N-Myc cell line was “clear loss in metabolic viability when the cells have induction of MYCN”.

In the case of `Cc1cnc(CNC(=O)C2CN(c3nc(NCCN(C)C)ncc3Cl)C2)cn1` [Comparative Example 1, reference compound], the results for the IC50 (in data set [3]; at Human NMT1 (HsNMT1)) were 8400 nM and 46000 nM, respectively.

Turning to `CN(C)CCNc1ncc(Cl)c(N2CC(C(=O)NCc3ccc(F)cc3F)C2)n1` [Comparative Example 2], half-maximal inhibition in [3] (IC50) required 2000 nM.

`C[C@@H]1CN(c2ncc(Cl)c(N3CC(C(=O)NC(C)(C)c4cnc5ccccn45)C3)n2)CCN1C` [Example Compound 3]: in the data set on SKNAS-ER-N-Myc cell line, the “metabolic viability of the SKNAS-ER-N-MYC cell line” value is “clear loss in metabolic viability when the cells have induction of MYCN”. Moreover, the “metabolic viability of the Shep-ER-N-MYC cell line” value in the data set on Shep-ER-N-Myc cell line was “clear loss in metabolic viability when the cells have induction of MYCN”. Besides, the “metabolic viability of the P-493-6 cell line” value in the data set with P-493-6 cell line is “clear MYC-dependent loss in metabolic viability”. Further, the average parasitemia values turned out to be 0.01% in data set [4] (3 mg/kg po per day on day 3, 4, 5 and 6 post-infection, day 0 post infection); 1.49% in data set [4] (3 mg/kg po per day on day 3, 4, 5 and 6 post-infection, day 3 post infection); 4.77% in data set [4] (3 mg/kg po per day on day 3, 4, 5 and 6 post-infection, day 4 post infection); 6.73% in data set [4] (3 mg/kg po per day on day 3, 4, 5 and 6 post-infection, day 5 post infection); 10.66% in data set [4] (3 mg/kg po per day on day 3, 4, 5 and 6 post-infection, day 6 post infection); 11.25% in data set [4] (3 mg/kg po per day on day 3, 4, 5 and 6 post-infection, day 7 post infection). For the same molecule, the average parasitemia values in [4] (10 mg/kg po per day on day 3, 4, 5 and 6 post-infection, day 0 post infection) came to 0.01%; in data set [4] (10 mg/kg po per day on day 3, 4, 5 and 6 post-infection, day 3 post infection) it was 1.37%; in data set [4] (10 mg/kg po per day on day 3, 4, 5 and 6 post-infection, day 4 post infection) it was 2.40%; in data set [4] (10 mg/kg po per day on day 3, 4, 5 and 6 post-infection, day 5 post infection) it was 4.21%; in data set [4] (10 mg/kg po per day on day 3, 4, 5 and 6 post-infection, day 6 post infection), 6.09%; in [4] (10 mg/kg po per day on day 3, 4, 5 and 6 post-infection, day 7 post infection), 7.35%. Moreover, the average parasitemia values in data set [4] (30 mg/kg po per day on day 3, 4, 5 and 6 post-infection, day 0 post infection) was 0.01%; in [4] (30 mg/kg po per day on day 3, 4, 5 and 6 post-infection, day 3 post infection) it was 0.60%; in [4] (30 mg/kg po per day on day 3, 4, 5 and 6 post-infection, day 4 post infection), 0.18%; in data set [4] (30 mg/kg po per day on day 3, 4, 5 and 6 post-infection, day 5 post infection) it was 0.02%; in data set [4] (30 mg/kg po per day on day 3, 4, 5 and 6 post-infection, day 6 post infection), 0.01%; in data set [4] (30 mg/kg po per day on day 3, 4, 5 and 6 post-infection, day 7 post infection), 0.00* %.
